Results reported in US20100143886A1, “IN VIVO HCV RESISTANCE TO ANTI-VIRAL INHIBITORS” (priority 2007, published 2010).
Entries after “also recorded” stand apart in the source; their conditions may differ.

Experiments:
HCV genotype 3a = assay: Viral load by commercial RT-TaqMan assay, chimpanzee dosed with Compound A (Example 3); assay type: in vivo; conditions: 2 mg per kg IV for 7 days, level of quantitation 20 IU/ml
Method: A chimpanzee infected with a HCV genotype 3a from a human was dosed with Compound A (a N5B polymerase inhibitor) for 7 days at 2 mg per kg IV. Plasma samples were collected prior, during, and after the dosing regimen, with viral load determined by a commercial viral load assay (RT-TaqMan, level of quantitation 20 IU/ml, Cenetron Diagnostics, Austin, Tex. 78758).

HCV genotype 1a = assay: Viral load by commercial RT-TaqMan assay, chimpanzees dosed with Compound B (Example 1); assay type: in vivo, chimpanzee; conditions: two chimpanzees, oral 5 mg per kg b.i.d. for 7 days; level of quantitation 20 IU/ml
Method: Two chimpanzees chronically infected with HCV genotype 1a from a human were orally dosed with Compound B (a NS3 protease inhibitor) for 7 days at 5 mg per kg b.i.d. Plasma samples were collected prior, during, and after the dosing regimen, with viral load determined by a commercial viral load assay (RT-TaqMan, level of quantitation 20 IU/ml, Cenetron Diagnostics, Austin, Tex. 78758).

Compound	viral load suppression (HCV genotype 3a)	viral load suppression (HCV genotype 1a)
C[C@@]1(O)[C@H](O)[C@@H](CO)O[C@H]1n1ccc2c(N)ncnc21 [Compound A]	below the limit of quantitation (BLQ); also recorded: below quantifiable levels	
CC[C@@H]1C[C@]1(NC(=O)[C@@H]1C[C@@H]2CN1C(=O)[C@H](C(C)(C)C)NC(=O)OCC(C)(C)CCCCc1cccc3c1CN(C3)C(=O)O2)C(=O)NS(=O)(=O)C1CC1 [Compound B]		below quantifiable levels; also recorded: below the limit of quantitation (BLQ)
